Test [1] deals with T1, α2β3γ2 benzodiazepine receptor GABA(A) isoform (UniProt P18507+P47869).
T1 sequence (P18507 1-475): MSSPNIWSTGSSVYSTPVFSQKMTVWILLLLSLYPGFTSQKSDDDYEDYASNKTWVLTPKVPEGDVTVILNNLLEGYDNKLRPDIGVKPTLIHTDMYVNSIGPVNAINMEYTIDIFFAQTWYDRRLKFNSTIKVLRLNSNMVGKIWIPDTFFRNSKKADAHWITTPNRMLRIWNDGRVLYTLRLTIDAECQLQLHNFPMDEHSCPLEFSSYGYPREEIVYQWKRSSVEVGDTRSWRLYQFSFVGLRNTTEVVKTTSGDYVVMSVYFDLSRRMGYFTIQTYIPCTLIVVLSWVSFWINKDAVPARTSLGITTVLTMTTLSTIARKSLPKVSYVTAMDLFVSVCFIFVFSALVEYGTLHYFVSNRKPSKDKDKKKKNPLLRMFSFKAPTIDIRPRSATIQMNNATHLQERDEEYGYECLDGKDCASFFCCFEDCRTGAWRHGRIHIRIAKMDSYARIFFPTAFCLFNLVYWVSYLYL
T1 sequence (P47869 1-451): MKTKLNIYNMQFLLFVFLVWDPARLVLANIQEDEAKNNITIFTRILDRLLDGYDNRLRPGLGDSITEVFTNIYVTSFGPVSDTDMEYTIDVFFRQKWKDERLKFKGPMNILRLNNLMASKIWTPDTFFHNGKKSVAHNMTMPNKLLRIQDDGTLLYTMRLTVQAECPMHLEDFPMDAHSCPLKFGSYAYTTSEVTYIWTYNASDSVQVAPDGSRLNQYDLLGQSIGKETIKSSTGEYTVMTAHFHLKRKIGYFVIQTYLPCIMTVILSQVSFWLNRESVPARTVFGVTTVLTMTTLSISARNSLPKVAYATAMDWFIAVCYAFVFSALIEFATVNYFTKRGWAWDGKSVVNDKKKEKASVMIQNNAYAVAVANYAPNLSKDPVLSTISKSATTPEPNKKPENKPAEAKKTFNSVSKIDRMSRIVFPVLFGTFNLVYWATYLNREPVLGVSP
As to the kind of experiment: Radioligand competition binding, α2β3γ2 BzR/GABA(A) isoform. Also on record: species or system human and rat. How it is done: (§1) The affinity of all ligands at the 6 major recombinant GABAA/BzR subtypes was measured by competition for [^3H]Ro15-1788 binding to HEK-T cells expressing both human and rat GABAA/Bz receptors of composition α1β2γ2 (α1), α2β2γ2 (α2), α3β2γ2 (α3), α4β2γ2 (α4), α5β2γ2 (α5) and α6β2γ2 (α6). It is well known that the β2 and β3 subunits can be interchanged with no effect on Bz ligand affinity or efficacy. […] These studies are similar to those performed in the laboratory of Bryan Roth who has already expressed the receptors employing the work of Kucken et. al. and Gray et. al.
(§2) In brief, for membrane preparations, the cells were scraped on to the ice and diluted into 5 mL of phosphate buffered saline (pH=7.40) and cells pelleted by centrifugation for 5 min. at 4° C. The pellet was resuspended in 1 mL of 50 mM Tris-acetate buffer (pH 7.4) and centrifuged at 18,000 g for 20 min. […] Each pellet were diluted to 6 mL and then 100 μL of membranes were incubated with approximately 1 nM final concentration of [^3H]Ro 15-1788 in a total volume of 250 μL together with serial dilutions of test compound for 90 min. on ice. The membranes were harvested in polyethyleneimine-pretreated Whatman GF/C filters and after drying and addition of scintillation cocktail, counted in a scintillation counter. The cpm retained on the filters was plotted against log concentration (M) and fitted to one site competition equation to obtain the Ki using Graphpad Prizm (V4.0) using the Cheng-Prusoff approximation.

For test [2], the target named is α6β3γ2 benzodiazepine receptor GABA(A) isoform (UniProt P18507+Q16445). As to the kind of experiment: Radioligand competition binding, α6β3γ2 BzR/GABA(A) isoform. Also on record: species or system human and rat. How it is done:
as §1, §2

Test [3] deals with T2, α1β3γ2 benzodiazepine receptor GABA(A) isoform (UniProt P14867+P18507).
T2 sequence (P14867 1-456): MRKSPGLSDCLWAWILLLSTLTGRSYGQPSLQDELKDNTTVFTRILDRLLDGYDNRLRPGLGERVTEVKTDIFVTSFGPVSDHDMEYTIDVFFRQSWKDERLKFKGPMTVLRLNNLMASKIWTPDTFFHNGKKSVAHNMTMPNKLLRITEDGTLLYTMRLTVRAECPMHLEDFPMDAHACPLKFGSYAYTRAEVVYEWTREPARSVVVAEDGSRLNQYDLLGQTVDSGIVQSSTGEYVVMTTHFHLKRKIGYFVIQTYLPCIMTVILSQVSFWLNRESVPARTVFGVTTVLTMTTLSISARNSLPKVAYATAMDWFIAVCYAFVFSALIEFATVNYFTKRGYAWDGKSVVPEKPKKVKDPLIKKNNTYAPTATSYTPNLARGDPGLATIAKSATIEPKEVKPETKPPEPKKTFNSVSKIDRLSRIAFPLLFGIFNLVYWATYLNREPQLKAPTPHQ
T2 sequence (P18507 1-475): T1 sequence (P18507 1-475)
As to the kind of experiment: Radioligand competition binding, α1β3γ2 BzR/GABA(A) isoform. Further details: Ki α1; means of two determinations; Ki α1; α1; species or system human and rat. How it is done:
as §1, §2
Background: Loss of bound radioactivity is the signal in a displacement assay; it reports binding, not function.

In the next test the target is α5β3γ2 GABAA receptor (Rattus norvegicus, UniProt P18508+P19969). As to the kind of experiment: Two-electrode voltage clamp in Xenopus oocytes, α5β3γ2. To be noted: oocytes. For orientation: In two-electrode clamp one electrode senses voltage and the other passes current.
The target of test [4] is T3, α5β3γ2 benzodiazepine receptor GABA(A) isoform (UniProt P18507+P31644).
T3 sequence (P18507 1-475): T1 sequence (P18507 1-475)
T3 sequence (P31644 1-462): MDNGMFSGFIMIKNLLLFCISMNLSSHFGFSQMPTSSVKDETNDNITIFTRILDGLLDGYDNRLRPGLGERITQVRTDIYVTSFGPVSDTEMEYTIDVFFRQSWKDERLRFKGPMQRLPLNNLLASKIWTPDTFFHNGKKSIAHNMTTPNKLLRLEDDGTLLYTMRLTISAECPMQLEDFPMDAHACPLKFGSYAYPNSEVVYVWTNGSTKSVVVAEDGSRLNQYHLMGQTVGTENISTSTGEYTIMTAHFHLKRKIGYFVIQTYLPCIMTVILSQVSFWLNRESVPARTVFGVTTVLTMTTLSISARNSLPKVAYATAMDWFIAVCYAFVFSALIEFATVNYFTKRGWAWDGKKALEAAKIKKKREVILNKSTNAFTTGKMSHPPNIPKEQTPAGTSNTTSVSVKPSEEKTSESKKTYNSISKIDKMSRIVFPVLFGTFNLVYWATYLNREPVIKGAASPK
As to the kind of experiment: Radioligand competition binding, α5β3γ2 BzR/GABA(A) isoform. Also on record: Ki α5; means of two determinations; Ki α5; α5; other: text; species or system human and rat.

[5] abbreviates: read-out: Ki α2, Table I, means of two determinations.
[6] abbreviates: read-out: α2, untitled table of lead compounds, unit inferred.
[7] abbreviates: read-out: Ki α6, Table I, means of two determinations.
Where [8] appears, read: read-out: α6, untitled table of lead compounds, unit inferred.
Setting [9] is: read-out: Ki α1, Table I, means of two determinations.
The mark [10] stands for this setting: read-out: α1, untitled table of lead compounds, unit inferred.
[11] abbreviates: read-out: Ki α5, Table I, means of two determinations.
[12] abbreviates: read-out: α5, untitled table of lead compounds, unit inferred.

Where two headings read alike, the source gives them in different places.

Chain of α5β3γ2 GABAA receptor (P19969 26-464): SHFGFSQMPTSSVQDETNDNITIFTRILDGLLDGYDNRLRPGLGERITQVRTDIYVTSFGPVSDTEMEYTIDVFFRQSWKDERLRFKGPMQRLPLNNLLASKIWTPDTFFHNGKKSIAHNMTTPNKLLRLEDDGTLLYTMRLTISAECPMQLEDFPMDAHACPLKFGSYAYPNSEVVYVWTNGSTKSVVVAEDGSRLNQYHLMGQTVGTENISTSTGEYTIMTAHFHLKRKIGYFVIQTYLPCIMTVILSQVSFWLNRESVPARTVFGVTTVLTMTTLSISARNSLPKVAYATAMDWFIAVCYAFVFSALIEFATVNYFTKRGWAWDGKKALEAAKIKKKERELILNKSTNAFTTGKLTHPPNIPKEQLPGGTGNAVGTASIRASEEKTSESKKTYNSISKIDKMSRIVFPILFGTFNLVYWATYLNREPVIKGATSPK
Chain of α5β3γ2 GABAA receptor (P63079 26-473 partner): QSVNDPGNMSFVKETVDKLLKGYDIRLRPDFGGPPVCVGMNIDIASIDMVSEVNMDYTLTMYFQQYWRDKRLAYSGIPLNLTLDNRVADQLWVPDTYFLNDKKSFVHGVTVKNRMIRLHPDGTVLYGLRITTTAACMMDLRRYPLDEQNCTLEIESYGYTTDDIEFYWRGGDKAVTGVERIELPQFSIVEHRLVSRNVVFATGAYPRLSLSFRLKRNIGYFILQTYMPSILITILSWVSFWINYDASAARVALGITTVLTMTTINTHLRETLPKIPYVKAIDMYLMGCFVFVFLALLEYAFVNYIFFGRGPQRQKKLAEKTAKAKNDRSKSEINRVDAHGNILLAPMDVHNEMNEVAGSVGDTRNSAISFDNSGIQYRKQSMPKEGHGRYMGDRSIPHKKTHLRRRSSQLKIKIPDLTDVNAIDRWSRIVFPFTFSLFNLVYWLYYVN
Chain of α5β3γ2 GABAA receptor (P18508 39-466): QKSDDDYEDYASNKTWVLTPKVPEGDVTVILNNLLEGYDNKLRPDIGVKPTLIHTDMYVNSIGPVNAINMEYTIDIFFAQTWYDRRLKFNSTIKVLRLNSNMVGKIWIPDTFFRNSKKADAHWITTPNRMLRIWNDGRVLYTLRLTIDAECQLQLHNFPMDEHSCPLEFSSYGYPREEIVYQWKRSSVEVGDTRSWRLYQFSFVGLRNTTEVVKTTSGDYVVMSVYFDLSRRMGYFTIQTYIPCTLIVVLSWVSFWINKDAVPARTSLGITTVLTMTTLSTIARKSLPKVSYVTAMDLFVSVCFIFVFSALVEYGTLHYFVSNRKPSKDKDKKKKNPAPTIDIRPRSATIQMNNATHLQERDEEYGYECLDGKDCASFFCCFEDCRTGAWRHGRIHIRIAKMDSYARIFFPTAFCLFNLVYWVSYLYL

Regarding `CCOC(=O)c1ncn2c1CN=C(c1ccccc1)c1cc(-c3ccccc3)ccc1-2` [DM-I-81, Ethyl 8-phenyl-6-phenyl-4H-benzo[f]imidazo[1,5-a][1,4]diazepine-3-carboxylate], the Ki in test [1] (setting [5]), in test [1] (setting [6]), in test [2] (setting [7]), in test [2] (setting [8]), in test [3] (setting [9]) and in test [3] (setting [10]) was greater than 2 µM each time. The Ki in test [4] (setting [11]) was found to be 0.176 µM; in test [4] (read-out: binding potency at α5 subtypes) it was 0.174 µM; in test [4] (setting [12]) it was 0.176 µM. In addition, at α5β3γ2 GABAA receptor, the “efficacy / modulation of GABA elicited currents at α5 (in words)” value (“efficacy / modulation” for short) is “moderate agonist activity”.
Consider `COCc1ncn2c1CN(C)C(=O)c1cc(Cl)ccc1-2` [PWZ-029, methyl(8-chloro-5,6-dihydro-5-methyl-6-oxo-4H-imidazo[1,5-α][1,4]benzodiazepin-3-yl)methyl ether], for which the Ki in test [1] (setting [5]), in test [1] (setting [6]), in test [2] (setting [7]), in test [2] (setting [8]), in test [3] (setting [9]) and in test [3] (setting [10]) was greater than 0.3 µM each time. Further, the Ki in test [4] (setting [11]) and in test [4] (setting [12]) was 0.0388 µM each time. For the same molecule, the “efficacy / modulation” value at α5β3γ2 GABAA receptor is on record as “selective inverse agonist”.
Take `CCc1ccc2c(c1)C(=O)N(C)Cc1c(C(=O)OCCCOC(=O)c3ncn4c3CN(C)C(=O)c3cc(CC)ccc3-4)ncn1-2` [XLi356, 1,3-Bis(8-ethyl-5,6-dihydro-5-methyl-6-oxo-4H-imidazo[1,5a][1,4]benzodiazepine-3-carboxy)propyl diester]: the Ki in test [1] (read-out: Ki α2, Table 2, means of two determinations) turned out to be 5.98 µM; in test [1] (setting [6]), 5.98 µM; in test [2] (read-out: Ki α6, Table 2, means of two determinations), 5 µM; in test [3] (read-out: Ki α1, Table 2, means of two determinations), 2.38 µM; in test [3] (setting [10]), 2.38 µM; in test [4] (read-out: Ki α5, Table 2, means of two determinations) it was 0.107 µM. For the same molecule, the Ki in test [4] (setting [12]) amounted to 0.107 µM. Further, the “efficacy / modulation” value on α5β3γ2 GABAA receptor (listed as XLi-356) is on record as “clear agonist”; at α5β3γ2 GABAA receptor (listed as Xli356), “appears to be an agonist”.

Values taken from patent publication US7595395B2, “Gabaergic agents to treat memory deficits” (priority 2005, dated 2009).
